From patent US10060189B2, “Hexadecene synthetic drilling fluid with improved environmental properties” (priority 2014, dated 2018) come the findings set out here.

One data set is described as follows: Pour point (ASTM D97). The format is physicochemical. From the text:
The phrase “pour point” refers to the lowest temperature at which a fluid will pour or flow. (See, e.g., ASTM International Standard Test Method D97). The results are reported in degrees Celsius. Many commercial base oils have specifications for pour point. When base oils have low pour points, the base oils are also likely to have other good low temperature properties, such as low cloud point, and low cold flow viscosity.

The next data set can be described thus: Flash point. The format is physicochemical.
The nature of data set [1]: Kinematic viscosity (ASTM D445-06). The format is physicochemical. As for the experimental part: The phrase “kinematic viscosity” refers to a measurement of the resistance to the flow of a fluid. Many base oils, drilling fluid compositions made from them, and the correct operation of equipment depends upon the appropriate viscosity of the fluid being used. Kinematic viscosity is determined by ASTM D445-06. The results are reported in mm^2/s or centistoke. The term “centistoke,” abbreviated “cSt,” is a unit for kinematic viscosity of a fluid (e.g., a drilling fluid), wherein 1 centistoke equals 1 millimeter squared per second (1 cSt=1 mm^2/s). It is also the ratio of the dynamic viscosity of a fluid to the fluid density. See, e.g., ASTM Standard Guide and Test Methods D 2270-04, D 445-06, D 6074, and D 2983.

In a further data set the test system is Leptocheirus plumulosus. Briefly: 10-day sediment toxicity test (EPA Method 1644). The format is in vivo. The text has this: The term “sediment toxicity” as used herein for drilling fluids and drill cuttings refers to EPA Method 1644: “Method for Conducting a Sediment Toxicity Test with Leptocheirus plumulosus and Non-Aqueous Drilling Fluids or Synthetic-Based Drilling Muds” and sediment preparation procedures specified in EPA Method 1646. EPA Method 1644 is published in “Analytic Methods for the Oil and Gas Extraction Point Source Category.” The 10-day Leptocheirus plumulosus toxicity test characterizing the sediment toxicity according to BAT (“Best Available Technology Economically Achievable) effluent limitations and NSPS (“New Source Performance Standards”) means the concentration (milligrams/kilogram dry sediment) of the base fluid in sediment that is lethal to 50 percent of the Leptocheirus plumulosus test organisms exposed to that concentration of the base fluids after ten days of constant exposure. The test is defined in ASTM Standard No. E1367-03 (2008) which is incorporated herein by reference.

Data set [2] in a line: 275-day anaerobic biodegradation test (modified ISO 11734). The text has this: The term “biodegradation rate” as used herein for drilling fluids and drill cuttings is in connection with the method for performing the 275-day anaerobic biodegradation test and is defined in Federal Register, Part IV Environmental Protection Agency, 40 CFR Parts 9 and […] entitled “Effluent Limitations Guidelines and New Source Performance Standards for the Oil and Gas Extraction Point Source Category”, Fed. Reg. Vol. 66, No. 14, Jan. 22, 2001, Appendix 4 to Subpart A of Part 435, incorporated herein by reference. The 275-day anaerobic biodegradation test described in Appendix 4 to Subpart A of Part 435 is based on a modification of ISO Standard No. 11734:1995 (also incorporated herein by reference) for use in a marine environment.

Another data set is described as follows: Density. Format: physicochemical.

For `C=CCCCCCCCCCCCCCC` [1-hexadecene], the “Pour Point” value in the data set “Pour point (ASTM D97)” (Table 2 and text) is 4 °C; in “Pour point (ASTM D97)” (Table 2 and text, listed as 1-hexadecene) it was “+4 °C”; in the data set “Pour point (ASTM D97)” (Table 3, blends by ratio C16 unbranched isomerized olefin to 1-hexadecene), 4 deg C. For the same molecule, the “Depression in Pour Point Compared to 1-hexadecene” value in the data set “Pour point (ASTM D97)” (Table 3, compared to 1-hexadecene) was 0 deg C. Besides, the “Flash Point” value in “Flash point” was 125 °C. The “Kinematic Viscosity at 40° C.” value in data set [1] is recorded as 2.4 cSt. The “Sediment Toxicity L. plumulosus 10 day LC50 Compliance Ratio (Ref Fluid/Test Fluid)” value in the data set on Leptocheirus plumulosus (10 day, ratio reference fluid/test fluid, <1 passes) was 0.35. The “EPA requirement in the 10-day sediment toxicity test” value in the data set with Leptocheirus plumulosus (in vivo) is listed as “consistently passes”. Also, the “275 Day Anaerobic Biodegradation % Compliance Ratio (Ref Fluid/Test Fluid)” value in data set [2] (275 day, ratio reference fluid/test fluid, <1 passes) came to 0.8. In addition, in data set [2] (versus C1618 IO standard), the “EPA requirement in the 275 day anaerobic biodegradation test” value is “consistently passes”. The molecule also came in with a Density in the data set “Density” of 0.785 g/cc.
